The subject of one assay is mice. Conditions: bleomycin-induced lung fibrosis model in mice; Cortijo et al. 2009; cited from earlier work.
Another assay has as its target T1, PDE5A1 (Homo sapiens, UniProt O76074).
T1 construct: from tissue; host or cells: human platelets from fresh donor blood (10,000 x g supernatant of sonicated lysate)
Put plainly: Inhibition of type 5 phosphodiesterase (PDE5) activity, modified SPA test with human platelet lysate. The assay is classed as biochemical. To be noted: 0.5 μM cGMP, read-out: PDE5A1 inhibitory values [measured as −log IC50 (mol/l)] (converted). The method, boiled down: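 Scintillation proximity assay with [3H]cGMP tracer at 0.5 μM total cGMP, stopped after 15 min with beads containing IBMX. PDE3 and PDE2 activities suppressed with motapizone (1 μM) and a PDE2 inhibitor (10 nM). Human platelet supernatant served as the enzyme, with compound preincubated 5 min at 37° C; IC50 values from concentration-effect curves.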

The target of another assay is T2, PDE4B1 (Homo sapiens, UniProt Q07343).
T2 construct: made in house; host or cells: SF21 insect cells (baculovirus; pCRBac vector), 1000 x g supernatant of homogenate
T2 sequence (Q07343 whole entry): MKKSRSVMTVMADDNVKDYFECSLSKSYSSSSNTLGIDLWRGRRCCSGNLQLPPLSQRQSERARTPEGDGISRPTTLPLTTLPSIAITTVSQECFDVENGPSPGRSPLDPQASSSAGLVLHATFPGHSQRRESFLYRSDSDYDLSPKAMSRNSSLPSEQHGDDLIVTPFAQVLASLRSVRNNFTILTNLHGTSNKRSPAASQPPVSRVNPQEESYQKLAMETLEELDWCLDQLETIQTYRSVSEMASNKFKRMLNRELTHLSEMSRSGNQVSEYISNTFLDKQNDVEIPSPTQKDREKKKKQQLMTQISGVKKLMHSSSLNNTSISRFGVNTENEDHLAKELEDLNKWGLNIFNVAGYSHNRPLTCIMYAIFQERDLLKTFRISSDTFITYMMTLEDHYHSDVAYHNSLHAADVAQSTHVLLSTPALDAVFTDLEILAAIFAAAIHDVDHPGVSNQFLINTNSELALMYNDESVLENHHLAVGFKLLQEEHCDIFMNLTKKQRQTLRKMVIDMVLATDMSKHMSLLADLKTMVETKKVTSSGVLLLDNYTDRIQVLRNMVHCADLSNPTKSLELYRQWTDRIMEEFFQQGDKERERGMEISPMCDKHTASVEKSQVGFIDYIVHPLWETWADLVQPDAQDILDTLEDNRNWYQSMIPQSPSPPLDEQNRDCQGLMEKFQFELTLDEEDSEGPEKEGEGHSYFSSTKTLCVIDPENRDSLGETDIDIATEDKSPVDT
The assay is described as follows: Inhibition of type 4 phosphodiesterase (PDE4) activity, modified SPA test with recombinant PDE4B1 expressed in SF21 insect cells. The assay is classed as biochemical. To be noted: recombinant PDE4B1, 0.5 μM cAMP, read-out: PDE4B1 inhibitory values [measured as −log IC50 (mol/l)] (converted). Put shortly:
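Modified [3H]cAMP SPA using 1000×g supernatant of SF21 cells expressing recombinant human PDE4B1, in 20 mM Tris pH 7.4, 0.1 mg/ml BSA, 5 mM Mg2+, 0.5 μM cAMP. After 5 min preincubation at 37 °C, 15 min reaction, stopped with SPA beads plus IBMX; IC50 by non-linear regression.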

In assay [1] the test system is patients with pulmonary fibrosis. To be noted: Ghofrani 2002, Collard 2007; cited from earlier work.
In assay [2] the test system is bleomycin-induced pulmonary fibrosis and pulmonary hypertension. Conditions: Hemnes et al. 2008; cited from earlier work.

Regarding `O=C(Nc1c(Cl)cncc1Cl)c1ccc(OC(F)F)c(OCC2CC2)c1` [roflumilast], the fibrosis development entry with mice is listed as “inhibit fibrosis development”.

On to `CCC(=O)N1CCC(NC(=O)c2c(C)[nH]c3c(-c4cc(CC)ccc4OCC4CC4)ncnc23)CC1` [Example E146, 4-[2-(Cyclopropylmethoxy)-5-ethylphenyl]-6-methyl-N-(1-propanoylpiperidin-4-yl)-5H-pyrrolo[3,2-d]pyrimidine-7-carboxamide], for which the values for the IC50 at PDE5A1 and at PDE4B1 were < 1 nM and 100 to 1000 nM, respectively.

Take `CC(=O)N1C[C@@H](NC(=O)c2c(C)[nH]c3c(-c4cc(C(F)F)ccc4OCC4CC4)ncnc23)C[C@@H]1C` [Example P24, N-[(3S,5S)-1-Acetyl-5-methylpyrrolidin-3-yl]-4-[2-(cyclopropylmethoxy)-5-(difluoromethyl)phenyl]-6-methyl-5H-pyrrolo[3,2-d]pyrimidine-7-carboxamide]: the IC50 was 1 to 10 nM at PDE5A1 and < 100 nM at PDE4B1.

In the case of `CCCc1nn(C)c2c(=O)[nH]c(-c3cc(S(=O)(=O)N4CCN(C)CC4)ccc3OCC)nc12` [sildenafil], in assay [1], the exercise tolerance result is “increases exercise tolerance”; the “lung hemodynamic (vascular resistance and ventilation/perfusion matching)” value was “improves lung hemodynamic”. Moreover, the “bleomycin-induced pulmonary fibrosis and pulmonary hypertension” value in assay [2] was “attenuates bleomycin-induced pulmonary fibrosis and pulmonary hypertension”.

`Cc1ccc(OCC2CC2)c(-c2ncnc3c(C(=O)NC4CCN(C(=O)[C@H](C)O)CC4)c(C)[nH]c23)c1` [Example F52, 4-[2-(Cyclopropylmethoxy)-5-methylphenyl]-N-{1-[(2S)-2-hydroxypropanoyl]piperidin-4-yl}-6-methyl-5H-pyrrolo[3,2-d]pyrimidine-7-carboxamide]: the values for the IC50 on PDE5A1 and at PDE4B1 were < 1 nM and < 100 nM, respectively.

For the compound `COCC(=O)N[C@H]1CC[C@@H](NC(=O)c2c(C)[nH]c3c(-c4cc(C)ccc4OCC4CC4)ncnc23)CC1` [Example E89, 4-[2-(Cyclopropylmethoxy)-5-methylphenyl]-N-{cis-4-[(methoxyacetyl)amino]cyclohexyl}-6-methyl-5H-pyrrolo[3,2-d]pyrimidine-7-carboxamide], the IC50 at PDE5A1 is < 1 nM; on PDE4B1, < 100 nM.

In the case of `CCc1ccc(OCC2CC2)c(-c2ncnc3c(C(=O)NC4CCC(NC(=O)C(C)O)CC4)c(C)[nH]c23)c1` (stereo not drawn) [Example F96, 4-[2-(Cyclopropylmethoxy)-5-ethylphenyl]-N-(cis-4-{[(25)-2-hydroxypropanoyl]amino}cyclohexyl)-6-methyl-5H-pyrrolo[3,2-d]pyrimidine-7-carboxamide], the IC50 is < 1 nM at PDE5A1 and < 100 nM on PDE4B1.

Consider `COc1ccc(OCC2CC2)c(-c2ncnc3c(C(=O)N[C@H]4CC[C@H](NC(=O)CO)CC4)c(C)[nH]c23)c1` [Example F43, 4-[2-(Cyclopropylmethoxy)-5-methoxyphenyl]-N-[trans-4-(glycoloylamino)cyclohexyl]-6-methyl-5H-pyrrolo[3,2-d]pyrimidine-7-carboxamide], for which the IC50 was < 1 nM at PDE5A1 and 100 to 1000 nM at PDE4B1.

With `Cc1[nH]c2c(-c3cc(F)ccc3OCC3CC3)ncnc2c1C(=O)NC1CCN(C(=O)[C@H](C)O)CC1` [Example F24, 4-(2-Cyclopropylmethoxy-5-fluoro-phenyl)-6-methyl-5H-pyrrolo[3,2-d]pyrimidine-7-carboxylic acid [1-((S)-2-hydroxy-propionyl)-piperidin-4-yl]-amide], the IC50 on PDE5A1 was < 1 nM; on PDE4B1 it was 100 to 1000 nM.

On to `CC(=O)N1CCC(NC(=O)c2c(C)[nH]c3c(-c4cc(C(F)F)ccc4OCC4CC4)ncnc23)CC1` [Example P1, N-(1-Acetylpiperidin-4-yl)-4-[2-(cyclopropylmethoxy)-5-(difluoromethyl)phenyl]-6-methyl-5H-pyrrolo[3,2-d]pyrimidine-7-carboxamide], for which the IC50 on PDE5A1 is < 1 nM; at PDE4B1 it was < 100 nM.

For the compound `COCC(=O)N1CCC(NC(=O)c2c(C)[nH]c3c(-c4cc(F)ccc4OCC4CC4)ncnc23)CC1` [Example E39, 4-(2-Cyclopropylmethoxy-5-fluoro-phenyl)-6-methyl-5H-pyrrolo[3,2-d]pyrimidine-7-carboxylic acid [1-(2-methoxy-acetyl)-piperidin-4-yl]-amide], the IC50 is 1 to 10 nM on PDE5A1 and 100 to 1000 nM on PDE4B1.

For the compound `CC(=O)N1CCC(NC(=O)c2c(C)[nH]c3c(-c4cc(C(C)C)ccc4OCC4CC4)ncnc23)CC1` [Example E157, N-(1-Acetylpiperidin-4-yl)-4-[2-(cyclopropylmethoxy)-5-(propan-2-yl)phenyl]-6-methyl-5H-pyrrolo[3,2-d]pyrimidine-7-carboxamide], the results for the IC50 at PDE5A1 and on PDE4B1 were < 1 nM and 100 to 1000 nM, respectively.

Regarding `COCC(=O)N[C@H]1CC[C@H](NC(=O)c2c(C)[nH]c3c(-c4cc(C(F)F)ccc4OCC4CC4)ncnc23)[C@H](F)C1` (relative stereo) [Example P171, 4-[2-(Cyclopropylmethoxy)-5-(difluoromethyl)phenyl]-N-{(1S*,2R*,4S*)-2-fluoro-4-[(methoxyacetyl)amino]cyclohexyl}-6-methyl-5H-pyrrolo[3,2-d]pyrimidine-7-carboxamide], the IC50 was < 1 nM on PDE5A1 and < 100 nM at PDE4B1.

`Cc1[nH]c2c(-c3cc(F)ccc3OCC3CC3)ncnc2c1C(=O)NC1CCN(C(=O)CO)CC1` [Example F23, 4-(2-Cyclopropylmethoxy-5-fluoro-phenyl)-6-methyl-5H-pyrrolo[3,2-d]pyrimidine-7-carboxylic acid [1-(2-hydroxy-acetyl)-piperidin-4-yl]-amide]: the values for the IC50 at PDE5A1 and at PDE4B1 were 1 to 10 nM and 100 to 1000 nM, respectively.

On to `CC(=O)N1CCC(NC(=O)c2c(C)[nH]c3c(-c4cc(C)ccc4OCC4CC4)nc(C)nc23)CC1` [Example E169, N-(1-Acetylpiperidin-4-yl)-4-[2-(cyclopropylmethoxy)-5-methylphenyl]-2,6-dimethyl-5H-pyrrolo[3,2-d]pyrimidine-7-carboxamide], for which the IC50 on PDE5A1 is < 1 nM; on PDE4B1, 100 to 1000 nM.

Turning to `Cc1[nH]c2c(-c3cc(C(C)C)ccc3OCC3CC3)ncnc2c1C(=O)NC1CCN(C(=O)[C@H](C)O)CC1` [Example F99, 4-[2-(Cyclopropylmethoxy)-5-(propan-2-yl)phenyl]-N-{1-[(2S)-2-hydroxypropanoyl]piperidin-4-yl}-6-methyl-5H-pyrrolo[3,2-d]pyrimidine-7-carboxamide], the results for the IC50 at PDE5A1 and on PDE4B1 were < 1 nM and 100 to 1000 nM, respectively.

Consider `CC(=O)N[C@H]1CC[C@H](NC(=O)c2c(C)[nH]c3c(-c4cc(C(F)F)ccc4OCC4CC4)ncnc23)CC1` [Example P6, N-[trans-4-(Acetylamino)cyclohexyl]-4-[2-(cyclopropylmethoxy)-5-(difluoromethyl)phenyl]-6-methyl-5H-pyrrolo[3,2-d]pyrimidine-7-carboxamide], for which the IC50 at PDE5A1 is < 1 nM; on PDE4B1, < 100 nM.

Turning to `COCC(=O)N1CCC(NC(=O)c2c(C)[nH]c3c(-c4cc(C(F)F)ccc4OCC4CC4)ncnc23)CC1` [Example P3, 4-[2-(Cyclopropylmethoxy)-5-(difluoromethyl)phenyl]-N-[1-(methoxyacetyl)piperidin-4-yl]-6-methyl-5H-pyrrolo[3,2-d]pyrimidine-7-carboxamide], the IC50 at PDE5A1 is 1 to 10 nM; on PDE4B1, < 100 nM.

Turning to `CCc1ccc(OCC2CC2)c(-c2ncnc3c(C(=O)N[C@H]4CC[C@@H](NC(C)=O)CC4)c(C)[nH]c23)c1` [Example E151, N-[cis-4-(Acetylamino)cyclohexyl]-4-[2-(cyclopropylmethoxy)-5-ethylphenyl]-6-methyl-5H-pyrrolo[3,2-d]pyrimidine-7-carboxamide], the values for the IC50 on PDE5A1 and at PDE4B1 were < 1 nM and 100 to 1000 nM, respectively.

With `Cc1[nH]c2c(-c3cc(C(F)(F)F)ccc3OCC3CC3)ncnc2c1C(=O)N[C@H]1CC[C@H](NC(=O)[C@H](C)O)CC1` [Example F60, 4-[2-(Cyclopropylmethoxy)-5-(trifluoromethyl)phenyl]-N-(trans-4-{[(2S)-2-hydroxypropanoyl]amino}cyclohexyl)-6-methyl-5H-pyrrolo[3,2-d]pyrimidine-7-carboxamide], the IC50 was < 1 nM at PDE5A1 and < 100 nM on PDE4B1.
